Results from the supplement of paper PMC10307832.

What was measured:
Assay in all cases: relative viability (nuclei count vs DMSO), 5 days (fraction); higher = more cells survive
[1] = compound: Cc1nc(C(=O)NCC(=O)O)c(O)c2ccc(Oc3ccccc3)cc12 [FG-4592] + COc1cc2c(Oc3ccc(NC(=O)C4(C(=O)Nc5ccc(F)cc5)CC4)cc3F)ccnc2cc1OCCCN1CCOCC1 [Foretinib] (partner 0.25 µM)
Outline: (§1)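 Cells from lung cancer lines were seeded into 1536-well plates and, one day later, dosed by pin tool. Treatments were either a single drug or a fixed dose of an anchor drug with five library-drug doses (not always all listed) in √10 steps. After 5 days, nuclei were stained in a one-step fixation (final 0.05% Triton X-100, 1% formaldehyde, 1 ug/ml Hoechst) and counted on 4× images, and relative viability is the treated-to-vehicle nuclei ratio, as the median of duplicate plates.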

[2] = compound: CC1=CC(=C(N1C2=CC=C(C=C2)Cl)C)C(=O)CN3CCCCC3 [IU1-47] + C[C@]1(O)C[C@@H](c2nc(-c3ccc4ccc(-c5ccccc5)nc4c3)c3c(N)nccn32)C1 [Linsitinib] (partner 1 µM)
Outline: as §1

[3] = compound: Cc1nc(C(=O)NCC(=O)O)c(O)c2ccc(Oc3ccccc3)cc12 [FG-4592] + Cc1nc(NC(=O)N2CCC[C@H]2C(N)=O)sc1-c1ccnc(C(C)(C)C(F)(F)F)c1 [Alpelisib] (partner 2 µM)
Outline: as §1

[4] = compound: CC1=CC(=C(N1C2=CC=C(C=C2)Cl)C)C(=O)CN3CCCCC3 [IU1-47] + Cc1cc(Nc2cc(N3CCN(C)CC3)nc(Sc3ccc(NC(=O)C4CC4)cc3)n2)n[nH]1 [Tozasertib] (partner 0.1 µM)
Outline: as §1

Cell Line: UMC-11
- relative viability ([1]; first compound 0.08 µM): 1.06
- relative viability ([1]; first compound 0.253 µM): 1.03
- relative viability ([1]; first compound 0.8 µM): 0.918
- relative viability ([1]; first compound 2.53 µM): 1.03
- relative viability ([1]; first compound 8 µM): 0.671
- relative viability ([2]; first compound 0.08 µM): 0.996
- relative viability ([2]; first compound 0.253 µM): 0.978
- relative viability ([2]; first compound 0.8 µM): 1.12
- relative viability ([2]; first compound 2.53 µM): 1.07
- relative viability ([2]; first compound 8 µM): 0.952
- relative viability ([3]; first compound 0.08 µM): 1.03
- relative viability ([3]; first compound 0.253 µM): 0.944
- relative viability ([3]; first compound 0.8 µM): 1
- relative viability ([3]; first compound 2.53 µM): 1.18
- relative viability ([3]; first compound 8 µM): 0.998
- relative viability ([4]; first compound 0.08 µM): 0.215
- relative viability ([4]; first compound 0.253 µM): 0.209
- relative viability ([4]; first compound 0.8 µM): 0.201
- relative viability ([4]; first compound 2.53 µM): 0.218
- relative viability ([4]; first compound 8 µM): 0.214
